Values quoted from earlier work as cited in US20070098676A1, “FUNCTIONALLY DIVERSE MACROMOLECULES AND THEIR SYNTHESIS” (priority 2005, published 2007).

Tested on: RSV
Settings: study conducted in 2001 (Huntley et al., 2002)

NC(=O)CN(CC(N)=O)S(=O)(=O)c1cccc(Nc2nc(Nc3cccc(S(=O)(=O)N(CC(N)=O)CC(N)=O)c3)nc(Nc3ccc(-c4ccc(Nc5nc(Nc6cccc(S(=O)(=O)N(CC(N)=O)CC(N)=O)c6)nc(Nc6cccc(S(=O)(=O)N(CC(N)=O)CC(N)=O)c6)n5)cc4S(=O)(=O)O)c(S(=O)(=O)O)c3)n2)c1 [RFI-641]
inhibition of RSV: potent and selective inhibitor of RSV
